{"source": "patent US5866574A", "about": "“Pancreatitis remedy” (Kyowa Hakko Kogyo Co., Ltd., priority 1997, dated 1999)", "key": {"[1]": {"tested_on": "murine cerulein pancreatitis", "test": "effects on murine cerulein pancreatitis (serum amylase, lipase, GPT)", "format": "in vivo, murine (female BALB/C mice)", "settings": "mean±SEM", "protocol": "Test of the effects on murine cerulein pancreatitis\nExperiment was conducted in accordance with the method described in Digestive Diseases and Science, 37, 274-279 (1992). Female BALB/C mice weighing 17 to 24 g were fasted for 16 hours. Water was provided ad libitum. Acute pancreatitis was induced by the administration of seven intraperitoueally injections of cerulein (50 μg/kg) at hourly intervals. Blood was drawn from abdominal vein, 3, 6, and 9 hours after the first injection of cerulein in case of Compound 1, Compound 2 and compound 3, while in case of Compound 4, blood was drawn therefrom 7 hours after the first injection of cerulein. Blood samples were centrifuged at 4° C. and 3,000 rpm for 10 minutes, and serum was separated. Serum amylase (Amy), lipase (Lip), and glutamic pyruvic transaminase (GPT) activities were measured. For Compound 1, Compound 2 and Compound 3, serum Amy was assayed with AU500/550 specific reagent \"Katayama\" Amy test(Katayama Chemical Industry Co., Ltd.); for Compound 4, serum Amy was assayed with \"Rikitech P-AMY EPS\" of BM pancreas-related reagent series (Boehringer Mannheim K. K.). Serum GPT was assayed with \"Katayama\" GPT test (Katayama Chemical Industry, Co., Ltd.). Serum Lip was assayed with an auto-analyzer reagent \"Kyowa\" Determiner Lipase (Kyowa Medex, Co., Ltd.). Compound 1, Compound 2, and Compound 3 were suspended in 0.5% methyl cellulose, and […] before the first injection of cerulein, the resulting suspension was orally given at a dose of 10 ml/kg. The solvent (0.5% methyl cellulose) was similarly given to a control group. Compound 4 was dissolved in distilled water, which was adjusted to pH 2 with 0.1N HCl, and then the resulting solution was adjusted to pH 4.5 with 0.1N sodium hydroxide. Compound 4 was orally administered one hour before the first injection of cerulein. The solvent (distilled water for injections, after adjustment to pH 4.5 with 0.1N HCl) was similarly given to a control group.\nResults are expressed as means±SEM where appropriate. Difference between normal group and control group were evaluated using the Wilcoxon's rank sum test. And for differences between control group and test compound-treated group, the Steel's test was used for Compound 1 and the Wilcoxon's rank sum test was used for Compounds 2, Compound 3 and Compound 4.\nThe effects of Compound 1, Compound 2 and Compound 3 on serum Amy, serum Lip and serum GPT are shown in Tables 2, 3 and 4; and the effect of Compound 4 are shown in Table 5."}, "[2]": {"tested_on": "dd-strain male mice", "test": "Acute Toxicity Test", "format": "in vivo", "settings": "mortality seven days after administration", "from_the_text": "Test compounds were orally or intraperitoneally administered to groups of dd-strain male mice weighing 20±1 g, each group consisting of three mice."}, "[3]": {"tested_on": "adenosine uptake", "settings": "Nucleosides & Nucleotides, 10, 975-982 (1991); cited from earlier work"}, "[4]": {"settings": "10 mg/kg oral, 3 h after the first injection of cerulein"}, "[5]": {"settings": "10 mg/kg oral, 6 h after the first injection of cerulein"}, "[6]": {"settings": "10 mg/kg oral, 9 h after the first injection of cerulein"}, "[7]": {"settings": "30 mg/kg oral, 3 h after the first injection of cerulein"}, "[8]": {"settings": "30 mg/kg oral, 6 h after the first injection of cerulein"}, "[9]": {"settings": "30 mg/kg oral, 9 h after the first injection of cerulein"}, "[10]": {"settings": "300 mg/kg oral, 3 h after the first injection of cerulein"}, "[11]": {"settings": "300 mg/kg oral, 6 h after the first injection of cerulein"}, "[12]": {"settings": "300 mg/kg oral, 9 h after the first injection of cerulein"}, "[13]": {"settings": "10 mg/kg oral, 7 hours after the first injection of cerulein"}}, "note": "Structures can show the parent of a compound that is named as a salt."}
{"smiles": "CCOc1cc2nc(N3CCOCC3)nc(N3CCC(n4c(=O)c5cc(C)ccc5n(C)c4=O)CC3)c2cc1OCC", "note": "[Compound 1, 3-[1-(6,7-Diethoxy-2-morpholino-4-quinazolynyl)-4-piperidinyl]-1,2,3,4-tetrahydro-1,6-dimethyl-2,4-dioxoquinazoline hydrochloride salt]", "values": [{"measurement": "Serum GPT", "setting": "[1]; [4]", "result": "37 ± 3", "unit": "IU/L"}, {"measurement": "Serum amylase", "setting": "[1]; [4]", "result": "4283 ± 245", "unit": "IU/L"}, {"measurement": "Serum lipase", "setting": "[1]; [4]", "result": "55 ± 3", "unit": "IU/L"}, {"measurement": "Serum GPT", "setting": "[1]; [5]", "result": "50 ± 3", "unit": "IU/L"}, {"measurement": "Serum amylase", "setting": "[1]; [5]", "result": "4967 ± 167", "unit": "IU/L"}, {"measurement": "Serum lipase", "setting": "[1]; [5]", "result": "91 ± 22", "unit": "IU/L"}, {"measurement": "Serum GPT", "setting": "[1]; [6]", "result": "76 ± 5", "unit": "IU/L"}, {"measurement": "Serum amylase", "setting": "[1]; [6]", "result": "14817 ± 1459", "unit": "IU/L"}, {"measurement": "Serum lipase", "setting": "[1]; [6]", "result": "466 ± 74", "unit": "IU/L"}, {"measurement": "Serum GPT", "setting": "[1]; [7]", "result": "32 ± 3", "unit": "IU/L"}, {"measurement": "Serum amylase", "setting": "[1]; [7]", "result": "4133 ± 264", "unit": "IU/L"}, {"measurement": "Serum lipase", "setting": "[1]; [7]", "result": "58 ± 5", "unit": "IU/L"}, {"measurement": "Serum GPT", "setting": "[1]; [8]", "result": "51 ± 6", "unit": "IU/L"}, {"measurement": "Serum amylase", "setting": "[1]; [8]", "result": "5200 ± 274", "unit": "IU/L"}, {"measurement": "Serum lipase", "setting": "[1]; [8]", "result": "81 ± 8", "unit": "IU/L"}, {"measurement": "Serum GPT", "setting": "[1]; [9]", "result": "52 ± 5", "unit": "IU/L"}, {"measurement": "Serum amylase", "setting": "[1]; [9]", "result": "5658 ± 682", "unit": "IU/L"}, {"measurement": "Serum lipase", "setting": "[1]; [9]", "result": "95 ± 15", "unit": "IU/L"}, {"measurement": "minimum lethal dose (MLD)", "setting": "[2]; intraperitoneal dosing", "result": "greater than 100 mg/kg"}, {"measurement": "minimum lethal dose (MLD)", "setting": "[2]; oral dosing", "result": "greater than 1000 mg/kg"}]}
{"smiles": "NC(=O)C1CN(CCCCC(c2ccc(F)cc2)c2ccc(F)cc2)CCN1CC(=O)Nc1c(Cl)cc(N)cc1Cl", "note": "(stereo not drawn) [Compound 2, 2-Aminocarbonyl-N-(4-amino-2,6-dichlorophenyl)-4-[5,5-bis(4-fluorophenyl)pentyl]-1-piperazine acetamide]", "values": [{"measurement": "Serum GPT", "setting": "[1]; [10]", "result": "55 ± 2", "unit": "IU/L"}, {"measurement": "Serum amylase", "setting": "[1]; [10]", "result": "4967 ± 291", "unit": "IU/L"}, {"measurement": "Serum lipase", "setting": "[1]; [10]", "result": "238 ± 9", "unit": "IU/L"}, {"measurement": "Serum GPT", "setting": "[1]; [11]", "result": "59 ± 6", "unit": "IU/L"}, {"measurement": "Serum amylase", "setting": "[1]; [11]", "result": "4417 ± 305", "unit": "IU/L"}, {"measurement": "Serum lipase", "setting": "[1]; [11]", "result": "217 ± 51", "unit": "IU/L"}, {"measurement": "Serum GPT", "setting": "[1]; [12]", "result": "129 ± 23", "unit": "IU/L"}, {"measurement": "Serum amylase", "setting": "[1]; [12]", "result": "9517 ± 23", "unit": "IU/L"}, {"measurement": "Serum lipase", "setting": "[1]; [12]", "result": "726 ± 23", "unit": "IU/L"}, {"measurement": "minimum lethal dose (MLD)", "setting": "[2]; intraperitoneal dosing", "result": "greater than 100 mg/kg"}, {"measurement": "minimum lethal dose (MLD)", "setting": "[2]; oral dosing", "result": "greater than 300 mg/kg"}]}
{"smiles": "NC(=O)C1CN(Cc2nc(-c3ccccc3)c(-c3ccccc3)o2)CCN1CC(=O)Nc1c(Cl)cc([N+](=O)[O-])cc1Cl", "note": "(stereo not drawn) [Compound 3, 2-Aminocarbonyl-N-(2,6-dichloro-4-nitrophenyl)-4-[(4,5-diphenyl-2-oxazolyl)methyl]-1-piperazine acetamide . dihydrochloride salt]", "values": [{"measurement": "Serum GPT", "setting": "[1]; [7]", "result": "64 ± 11", "unit": "IU/L"}, {"measurement": "Serum amylase", "setting": "[1]; [7]", "result": "4050 ± 309", "unit": "IU/L"}, {"measurement": "Serum lipase", "setting": "[1]; [7]", "result": "243 ± 40", "unit": "IU/L"}, {"measurement": "Serum GPT", "setting": "[1]; [8]", "result": "40 ± 1", "unit": "IU/L"}, {"measurement": "Serum amylase", "setting": "[1]; [8]", "result": "3733 ± 149", "unit": "IU/L"}, {"measurement": "Serum lipase", "setting": "[1]; [8]", "result": "135 ± 6", "unit": "IU/L"}, {"measurement": "Serum GPT", "setting": "[1]; [9]", "result": "59 ± 7", "unit": "IU/L"}, {"measurement": "Serum amylase", "setting": "[1]; [9]", "result": "3958 ± 146", "unit": "IU/L"}, {"measurement": "Serum lipase", "setting": "[1]; [9]", "result": "200± 13", "unit": "IU/L"}]}
{"smiles": "CCOc1cc2c(N3CCC(n4c(=O)c5cc(C)ccc5n(C)c4=O)CC3)nc(N3CCOCC3)nc2cc1OCCO", "note": "[Compound 4, 3-[1-[6-ethoxy-7-(2-hidroxyethyl)oxy-2-morpholino-4-quinazolynyl]-4-piperidinyl]-1,2,3,4-tetrahydro-1,6-dimethyl-2,4-dioxoquinazoline]", "values": [{"measurement": "Serum Amirase", "setting": "[1]; 10 mg/kg oral, 7 hours after the first injection of cerulein, P-AMY assay", "result": "14690 ± 922", "unit": "IU/l"}, {"measurement": "Serum GPT", "setting": "[1]; [13]", "result": "67 ± 2", "unit": "IU/l"}, {"measurement": "Serum lipase", "setting": "[1]; [13]", "result": "195 ± 23", "unit": "IU/l"}]}
{"smiles": "NC(=O)C1CN(CCCCC(c2ccc(F)cc2)c2ccc(F)cc2)CCN1CC(=O)Nc1c(Cl)cc(N)cc1Cl", "note": "(stereo not drawn) [Compound R75231]", "values": [{"measurement": "action of inhibiting adenosine uptake", "setting": "[3]", "result": "have an action of inhibiting adenosine uptake"}]}
{"smiles": "COc1cc(C(=O)OCCCN2CCCN(CCCOC(=O)c3cc(OC)c(OC)c(OC)c3)CC2)cc(OC)c1OC", "note": "[dilazep]", "values": [{"measurement": "action of inhibiting adenosine uptake", "setting": "[3]", "result": "have an action of inhibiting adenosine uptake"}]}
{"smiles": "OCCN(CCO)c1nc(N2CCCCC2)c2nc(N(CCO)CCO)nc(N3CCCCC3)c2n1", "note": "[dipyridamole]", "values": [{"measurement": "action of inhibiting adenosine uptake", "setting": "[3]", "result": "have an action of inhibiting adenosine uptake"}]}
{"smiles": "COc1cc(C(=O)OCCCN(C)CCN(C)CCCOC(=O)c2cc(OC)c(OC)c(OC)c2)cc(OC)c1OC", "note": "[hexobendine]", "values": [{"measurement": "action of inhibiting adenosine uptake", "setting": "[3]", "result": "have an action of inhibiting adenosine uptake"}]}
{"smiles": "Cc1cccc(C)c1NC(=O)CN1CCN(CCCC(c2ccc(F)cc2)c2ccc(F)cc2)CC1", "note": "[lidoflazine]", "values": [{"measurement": "action of inhibiting adenosine uptake", "setting": "[3]", "result": "have an action of inhibiting adenosine uptake"}]}
